# Results: ChEMBL document CHEMBL1201862, “PubChem BioAssay data set” (2004)
#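 Exposure lasted 48 hours, with cells grown in 96-well plates and compounds tested at five concentrations. GI50: concentration for 50% inhibition of growth.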 Calls of active or inactive are those of the source. Cut-off read from the data, not from the text of the source: active = GI50 up to about 1.1 µM and inactive = higher.
# Experiments:
# Experiment in all cases: NCI-60 cell line screen, 48 h
# [1] = test system: 786-0
# [2] = test system: A498
# [3] = test system: A549
# [4] = test system: ACHN
# [5] = test system: BT-549
# [6] = test system: CAKI-1
# [7] = test system: CCRF-CEM
# [8] = test system: COLO 205
# [9] = test system: DU-145
# [10] = test system: EKVX
# [11] = test system: HCC 2998
# [12] = test system: HCT-116
# [13] = test system: HCT-15
# [14] = test system: HL-60
# [15] = test system: HOP-62
# [16] = test system: HOP-92
# [17] = test system: HT-29
# [18] = test system: Hs-578T
# [19] = test system: IGROV-1
# [20] = test system: K562
# [21] = test system: KM12
# [22] = test system: LOX IMVI
# [23] = test system: M14
# [24] = test system: MCF7
# [25] = test system: MDA-MB-231
# [26] = test system: MDA-MB-435
# [27] = test system: MDA-N
# [28] = test system: MOLT-4
# [29] = test system: Malme-3M
# [30] = test system: NCI-H226
# [31] = test system: NCI-H23
# [32] = test system: NCI-H460
# [33] = test system: NCI-H522
# [34] = test system: NCI/ADR-RES
# [35] = test system: OVCAR-3
# [36] = test system: OVCAR-4
# [37] = test system: OVCAR-5
# [38] = test system: OVCAR-8
# [39] = test system: PC-3
# [40] = test system: RPMI-8226
# [41] = test system: RXF 393
# [42] = test system: SF-268
# [43] = test system: SF-295
# [44] = test system: SF-539
# [45] = test system: SK-MEL-28
# [46] = test system: SK-MEL-2
# [47] = test system: SK-MEL-5
# [48] = test system: SK-OV-3
# [49] = test system: SN12C
# [50] = test system: SNB-19
# [51] = test system: SNB-75
# [52] = test system: SR
# [53] = test system: SW-620
# [54] = test system: T47D
# [55] = test system: TK-10
# [56] = test system: U-251
# [57] = test system: UACC-257
# [58] = test system: UACC-62
# [59] = test system: UO-31
smiles,measurement,setting,value
CC(C)c1ccc2c(c1)CCC1C(C)(CN)CCCC21C (stereo unspecified),GI50,[1],1560 nM (inactive)
same,GI50,[2],1610 nM (inactive)
same,GI50,[3],1800 nM (inactive)
same,GI50,[4],1740 nM (inactive)
same,GI50,[5],1880 nM (inactive)
same,GI50,[6],1410 nM (inactive)
same,GI50,[7],1550 nM (inactive)
same,GI50,[8],575 nM (active)
same,GI50,[9],1770 nM (inactive)
same,GI50,[10],1860 nM (inactive)
same,GI50,[11],43.8 nM (active)
same,GI50,[12],1590 nM (inactive)
same,GI50,[13],1540 nM
same,GI50,[14],1310 nM (inactive)
same,GI50,[15],1750 nM (inactive)
same,GI50,[16],1550 nM (inactive)
same,GI50,[17],914 nM (active)
same,GI50,[18],1630 nM (inactive)
same,GI50,[19],1710 nM (inactive)
same,GI50,[20],551 nM (active)
same,GI50,[21],1690 nM (inactive)
same,GI50,[22],1430 nM (inactive)
same,GI50,[23],1670 nM (inactive)
same,GI50,[24],1440 nM (inactive)
same,GI50,[25],1420 nM (inactive)
same,GI50,[26],1440 nM (inactive)
same,GI50,[27],1510 nM (inactive)
same,GI50,[28],1320 nM (inactive)
same,GI50,[29],1430 nM (inactive)
same,GI50,[30],1910 nM (inactive)
same,GI50,[31],1700 nM (inactive)
same,GI50,[32],1220 nM (inactive)
same,GI50,[33],1790 nM (inactive)
same,GI50,[34],1640 nM (inactive)
same,GI50,[35],1700 nM (inactive)
same,GI50,[36],1610 nM (inactive)
same,GI50,[37],1760 nM (inactive)
same,GI50,[38],1730 nM (inactive)
same,GI50,[39],1590 nM (inactive)
same,GI50,[40],653 nM (active)
same,GI50,[41],1560 nM (inactive)
same,GI50,[42],1650 nM (inactive)
same,GI50,[43],1820 nM (inactive)
same,GI50,[44],1790 nM (inactive)
same,GI50,[45],1730 nM (inactive)
same,GI50,[46],1730 nM (inactive)
same,GI50,[47],1800 nM (inactive)
same,GI50,[48],2110 nM (inactive)
same,GI50,[49],1710 nM (inactive)
same,GI50,[50],1770 nM (inactive)
same,GI50,[51],1940 nM (inactive)
same,GI50,[52],1100 nM (active)
same,GI50,[53],1290 nM (inactive)
same,GI50,[54],1450 nM (inactive)
same,GI50,[55],1700 nM (inactive)
same,GI50,[56],1380 nM (inactive)
same,GI50,[57],1690 nM (inactive)
same,GI50,[58],1770 nM (inactive)
same,GI50,[59],1390 nM (inactive)
CC1=C(C#N)C(=O)N(/N=C/c2ccc(Cl)cc2)C(=O)/C1=c1\o/c(=C2/C(=O)N(/N=C/c3ccc(Cl)cc3)C(=O)C(C#N)=C2C)c2nccnc12,GI50,[1],> 100000 nM (inactive)
same,GI50,[2],> 100000 nM (inactive)
same,GI50,[3],> 100000 nM (inactive)
same,GI50,[4],> 100000 nM (inactive)
same,GI50,[5],> 100000 nM (inactive)
same,GI50,[6],> 100000 nM (inactive)
same,GI50,[7],70300 nM (inactive)
same,GI50,[8],> 100000 nM (inactive)
same,GI50,[9],> 100000 nM (inactive)
same,GI50,[10],> 100000 nM (inactive)
same,GI50,[11],42200 nM (inactive)
same,GI50,[12],76700 nM (inactive)
same,GI50,[13],82000 nM
same,GI50,[14],84500 nM (inactive)
same,GI50,[16],> 100000 nM (inactive)
same,GI50,[17],> 100000 nM (inactive)
same,GI50,[18],21200 nM (inactive)
same,GI50,[19],> 100000 nM (inactive)
same,GI50,[20],69700 nM (inactive)
same,GI50,[21],47100 nM (inactive)
same,GI50,[22],> 100000 nM (inactive)
same,GI50,[23],> 100000 nM (inactive)
same,GI50,[24],70500 nM (inactive)
same,GI50,[25],> 100000 nM (inactive)
same,GI50,[26],> 100000 nM (inactive)
same,GI50,[27],77300 nM (inactive)
same,GI50,[28],88300 nM (inactive)
same,GI50,[29],> 100000 nM (inactive)
same,GI50,[30],78200 nM (inactive)
same,GI50,[31],> 100000 nM (inactive)
same,GI50,[32],> 100000 nM (inactive)
same,GI50,[33],> 100000 nM (inactive)
same,GI50,[34],> 100000 nM (inactive)
same,GI50,[35],> 100000 nM (inactive)
same,GI50,[36],57500 nM (inactive)
same,GI50,[37],> 100000 nM (inactive)
same,GI50,[38],> 100000 nM (inactive)
same,GI50,[39],60700 nM (inactive)
same,GI50,[40],60700 nM (inactive)
same,GI50,[41],19500 nM (inactive)
same,GI50,[42],47300 nM (inactive)
same,GI50,[43],> 100000 nM (inactive)
same,GI50,[44],> 100000 nM (inactive)
same,GI50,[45],> 100000 nM (inactive)
same,GI50,[46],> 100000 nM (inactive)
same,GI50,[47],96600 nM (inactive)
same,GI50,[48],> 100000 nM (inactive)
same,GI50,[49],> 100000 nM (inactive)
same,GI50,[50],> 100000 nM (inactive)
same,GI50,[51],15300 nM (inactive)
same,GI50,[52],80500 nM (inactive)
same,GI50,[53],> 100000 nM (inactive)
same,GI50,[54],> 100000 nM (inactive)
same,GI50,[56],> 100000 nM (inactive)
same,GI50,[57],> 100000 nM (inactive)
same,GI50,[58],> 100000 nM (inactive)
same,GI50,[59],85700 nM (inactive)
